Target: T1, human OX2R (Homo sapiens, UniProt O43614)
T1 construct: expressed in transfected cells
T1 sequence (O43614 1-444): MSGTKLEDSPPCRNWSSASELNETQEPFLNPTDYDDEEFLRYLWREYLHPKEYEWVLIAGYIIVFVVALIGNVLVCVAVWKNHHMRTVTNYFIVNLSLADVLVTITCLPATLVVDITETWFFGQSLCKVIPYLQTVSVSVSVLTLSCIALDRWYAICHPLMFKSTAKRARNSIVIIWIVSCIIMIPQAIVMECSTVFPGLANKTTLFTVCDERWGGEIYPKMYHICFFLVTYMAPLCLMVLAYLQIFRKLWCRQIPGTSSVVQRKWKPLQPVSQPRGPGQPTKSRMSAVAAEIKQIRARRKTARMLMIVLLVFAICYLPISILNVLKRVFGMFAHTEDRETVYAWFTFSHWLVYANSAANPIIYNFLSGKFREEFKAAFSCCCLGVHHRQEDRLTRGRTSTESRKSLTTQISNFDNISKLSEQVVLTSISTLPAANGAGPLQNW
Experiment: Measurement of OX2R agonist activity (intracellular calcium concentration change, Fluo4-AM, FDSS 7000)
Type: cell-based
Conditions: compound concentration 10 μM; human OX2R-expressing CHO-K1 cells; 1 μM human orexin A peptide = 100%, medium alone = 0%
Method in brief: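 Stable human OX2R-expressing CHO-K1 cells, loaded 45 min at 37 °C with 1.14 μM Fluo4-AM plus probenecid in HEPES-buffered HBSS pH 7.4; calcium fluorescence read by FDSS. Activation at 10 μM compound expressed relative to 1 μM human orexin A (100%) and medium alone (0%).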

| Structure (SMILES) | Act. (%): activation rate of test substance [%] |
| --- | --- |
| CON(C)C(=O)[C@@]1(Cc2ccc(F)c(-c3ncc(F)cn3)c2)C[C@H](F)[C@H](NS(=O)(=O)N(C)C)C1 (relative stereo) [Example 34, (1R*,3R*,4S*)-3-((N,N-Dimethylsulfamoyl)amino)-4-fluoro-1-(4-fluoro-3-(5-fluoropyrimidin-2-yl)benzyl)-N-methoxy-N-methylcyclopentane-1-carboxamide] | 90 |
| CON(C)C(=O)[C@@]1(Cc2ccc(F)c(-c3ccccc3F)c2)CC[C@H](NS(C)(=O)=O)C1 (relative stereo) [Example 3, (1R*,3S*)-1-((2′,6-Difluoro-[1,1′-biphenyl]-3-yl)methyl)-N-methoxy-N-methyl-3-(methylsulfonamido)cyclopentane-1-carboxamide] | 93 |
| COc1cnc(-c2cccc(C[C@]3(C(=O)N(C)OC)CC[C@H](NS(C)(=O)=O)C3)c2)nc1 (relative stereo) [Example 20] | 75 |
| CON(C)C(=O)[C@@]1(Cc2cccc(-n3nccn3)c2)CC[C@H](NS(C)(=O)=O)C1 (relative stereo) [Example 27, (1R*,3S*)-1-(3-(2H-1,2,3-Triazol-2-yl)benzyl)-N-methoxy-N-methyl-3-(methylsulfonamido)cyclopentane-1-carboxamide] | 87 |
| C[C@H]1CCCN1C(=O)[C@@]1(Cc2cccc(-c3ccccc3)c2)CC[C@H](NS(C)(=O)=O)C1 (relative stereo) [Example 8] | 75 |
| CON(C)C(=O)[C@@]1(Cc2cc(-c3ncccn3)ccc2F)C[C@H](F)[C@H](NS(=O)(=O)C(F)(F)F)C1 (relative stereo) [Example 38, (1R*,3S*,4R*)-3-Fluoro-1-(2-fluoro-5-(pyrimidin-2-yl)benzyl)-N-methoxy-N-methyl-4-((trifluoromethyl)sulfonamido)cyclopentane-1-carboxamide] | 93 |
| CS(=O)(=O)N[C@H]1CC[C@](Cc2cccc(-c3ccccc3)c2)(C(=O)N2CCC(F)(F)C2)C1 (relative stereo) [Example 75] | 23 |

Tested on: wild-type mice
Experiment: not given
Conditions: subcutaneous administration; cited from earlier work

| Structure (SMILES) | wake time |
| --- | --- |
| COC(=O)N1CCC[C@H](NS(C)(=O)=O)[C@@H]1CO[C@H]1CC[C@@H](c2ccccc2)CC1 [TAK-925] | prolonging of wake time |

Tested on: NT1 patients
Experiment: not given
Conditions: clinical study; cited from earlier work

| Structure (SMILES) | wakefulness and daytime sleepiness |
| --- | --- |
| COC(=O)N1CCC[C@H](NS(C)(=O)=O)[C@@H]1CO[C@H]1CC[C@@H](c2ccccc2)CC1 [TAK-925] | maintaining wakefulness and reducing daytime sleepiness |
